In patent US10464947B2 (Incyte Corporation, priority 2013, dated 2019):

These compounds were tested on C-myc in KMS.12.BM cells (assay: KMS.12.BM C-Myc ELISA Assay (Example C1)). Details: Homo sapiens, 2 h.
Type: cell-based
Experimental: KMS.12.BM C-Myc ELISA Assay
KMS.12.BM cell line (human myeloma) was purchased from JCRB (Osaka, Japan) and maintained in RPMI with 10% FBS culture medium. To measure the C-myc inhibitory activity of the compounds, the KMS.12.BM cells are plated in the RPMI culture medium at 75000 cells/well/per 200 μL into a 96-well flat bottom polystyrene tissue culture plate (Corning through VWR, NJ), in the presence or absence of a concentration range of test compounds. After 2 h, cells are pelleted and lysed with Cell Extraction Buffer (BioSource, Carlsbad, Calif.) in the presence of protease inhibitors (Life Technologies, Grand Island, N.Y. and Sigma, St Louis, Mo.). Clarified lyses are tested in a C-myc commercial ELISA (Life Technologies, Grand Island, N.Y.).

`Cc1noc(C)c1-c1ccc2nc(NC(C)CO)n3c2c1OCC3c1ccccc1` (single isomer, unassigned) [Example 30, 2-{[7-(3,5-Dimethylisoxazol-4-yl)-4-phenyl-4,5-dihydroimidazo[1,5,4-de][1,4]benzoxazin-2-yl]amino}propan-1-ol] and `Cc1noc(C)c1-c1ccc2nc(C3CCNC3)n3c2c1OC[C@@H]3c1ccccn1` (single isomer, unassigned) [Example 106A] cannot be ordered by IC50: under 1000 nM for the first, under 1000 nM for the second.

What follows are compounds tested on KMS.12.BM cells (assay: KMS.12.BM Cell Viability Assay (Example B1)). Details: Homo sapiens, 72 h, 3 days, Cell Titer-GLO, read-out: KMS cellular IC50.
Type: cell-based, human
Method in brief: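 KMS.12.BM human myeloma cells, 5000 cells/well in RPMI with 10% FBS, exposed to a compound concentration range for 3 days. Viable cells measured by ATP-based Cell Titer-GLO luminescence after 10 min at room temperature.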

`Cc1noc(C)c1-c1ccc2nc(NC(C)CO)n3c2c1OCC3c1ccccc1` (single isomer, unassigned) [Example 30, 2-{[7-(3,5-Dimethylisoxazol-4-yl)-4-phenyl-4,5-dihydroimidazo[1,5,4-de][1,4]benzoxazin-2-yl]amino}propan-1-ol] and `CNC(=O)[C@@H]1CCN(c2nc3ccc(-c4c(C)noc4C)c4c3n2[C@@H](c2ccccn2)CO4)C1` [Example 249, (3R)-1-[(4S)-7-(3,5-dimethylisoxazol-4-yl)-4-pyridin-2-yl-4,5-dihydroimidazo[1,5,4-de][1,4]benzoxazin-2-yl]-N-methylpyrrolidine-3-carboxamide] cannot be ordered by IC50: under 1000 nM for the first, under 1000 nM for the second.

`Cc1noc(C)c1-c1ccc2nc(N3CC(NC(=O)C4CCC4)C3)n3c2c1OC[C@@H]3c1ccccn1` [Example 236, N-{1-[(4S)-7-(3,5-dimethylisoxazol-4-yl)-4-pyridin-2-yl-4,5-dihydroimidazo[1,5,4-de][1,4]benzoxazin-2-yl]azetidin-3-yl}cyclobutanecarboxamide] and `Cc1noc(C)c1-c1ccc2nc(N3CC[C@@H](C(=O)NC4CC4)C3)n3c2c1OC[C@@H]3c1ccccn1` [Example 251, (3R)-N-cyclopropyl-1-[(4S)-7-(3,5-dimethylisoxazol-4-yl)-4-pyridin-2-yl-4,5-dihydroimidazo[1,5,4-de][1,4]benzoxazin-2-yl]pyrrolidine-3-carboxamide] cannot be ordered by IC50: under 1000 nM for the first, under 1000 nM for the second.

`Cc1noc(C)c1-c1ccc2nc(N3CC(NS(C)(=O)=O)C3)n3c2c1OC[C@@H]3c1ccccn1` [Example 237, N-{1-[(4S)-7-(3,5-dimethylisoxazol-4-yl)-4-pyridin-2-yl-4,5-dihydroimidazo[1,5,4-de][1,4]benzoxazin-2-yl]azetidin-3-yl}methanesulfonamide] and `CCS(=O)(=O)NC1CN(c2nc3ccc(-c4c(C)noc4C)c4c3n2[C@@H](c2ccccn2)CO4)C1` [Example 238, N-{1-[(4S)-7-(3,5-dimethylisoxazol-4-yl)-4-pyridin-2-yl-4,5-dihydroimidazo[1,5,4-de][1,4]benzoxazin-2-yl]azetidin-3-yl}ethanesulfonamide] cannot be ordered by IC50: under 1000 nM for the first, under 1000 nM for the second.

`Cc1noc(C)c1-c1ccc2nc(N3CC(NS(=O)(=O)C(C)C)C3)n3c2c1OC[C@@H]3c1ccccn1` [Example 239, N-{1-[(4S)-7-(3,5-dimethylisoxazol-4-yl)-4-pyridin-2-yl-4,5-dihydroimidazo[1,5,4-de][1,4]benzoxazin-2-yl]azetidin-3-yl}propane-2-sulfonamide] and `Cc1noc(C)c1-c1ccc2nc(N3CCC(NS(C)(=O)=O)CC3)n3c2c1OC[C@@H]3c1ccccn1` [Example 240, N-{1-[(4S)-7-(3,5-dimethylisoxazol-4-yl)-4-pyridin-2-yl-4,5-dihydroimidazo[1,5,4-de][1,4]benzoxazin-2-yl]piperidin-4-yl}methanesulfonamide] cannot be ordered by IC50: under 1000 nM for the first, under 1000 nM for the second.

`COCC(=O)NC1CCN(c2nc3ccc(-c4c(C)noc4C)c4c3n2[C@@H](c2ccccn2)CO4)CC1` [Example 241, N-{1-[(4S)-7-(3,5-dimethylisoxazol-4-yl)-4-pyridin-2-yl-4,5-dihydroimidazo[1,5,4-de][1,4]benzoxazin-2-yl]piperidin-4-yl}-2-methoxyacetamide] and `CCC(=O)NC1CCN(c2nc3ccc(-c4c(C)noc4C)c4c3n2[C@@H](c2ccccn2)CO4)CC1` [Example 243, N-{1-[(4S)-7-(3,5-dimethylisoxazol-4-yl)-4-pyridin-2-yl-4,5-dihydroimidazo[1,5,4-de][1,4]benzoxazin-2-yl]piperidin-4-yl}propanamide] cannot be ordered by IC50: under 1000 nM for the first, under 1000 nM for the second.

`Cc1noc(C)c1-c1ccc2nc(N3CCC(NC(=O)C(F)(F)F)CC3)n3c2c1OC[C@@H]3c1ccccn1` [Example 242, N-{1-[(4S)-7-(3,5-dimethylisoxazol-4-yl)-4-pyridin-2-yl-4,5-dihydroimidazo[1,5,4-de][1,4]benzoxazin-2-yl]piperidin-4-yl}-2,2,2-trifluoroacetamide] and `Cc1noc(C)c1-c1ccc2nc(N3CCC(NC(=O)C(C)C)CC3)n3c2c1OCC3c1ccccn1` (centres unmarked) [Example 244] cannot be ordered by IC50: under 1000 nM for the first, under 1000 nM for the second.

`CCC(=O)N1CCCN(c2nc3ccc(-c4c(C)noc4C)c4c3n2[C@@H](c2ccccn2)CO4)CC1` [Example 246, (4S)-7-(3,5-dimethylisoxazol-4-yl)-2-(4-propionyl-1,4-diazepan-1-yl)-4-pyridin-2-yl-4,5-dihydroimidazo[1,5,4-de][1,4]benzoxazine] and `CCS(=O)(=O)N1CCCN(c2nc3ccc(-c4c(C)noc4C)c4c3n2[C@@H](c2ccccn2)CO4)CC1` [Example 248, (4S)-7-(3,5-dimethylisoxazol-4-yl)-2-[4-(ethylsulfonyl)-1,4-diazepan-1-yl]-4-pyridin-2-yl-4,5-dihydroimidazo[1,5,4-de][1,4]benzoxazine] cannot be ordered by IC50: under 1000 nM for the first, under 1000 nM for the second.

`CCNC(=O)[C@@H]1CCN(c2nc3ccc(-c4c(C)noc4C)c4c3n2[C@@H](c2ccccn2)CO4)C1` [Example 250, (3R)-1-[(4S)-7-(3,5-dimethylisoxazol-4-yl)-4-pyridin-2-yl-4,5-dihydroimidazo[1,5,4-de][1,4]benzoxazin-2-yl]-N-ethylpyrrolidine-3-carboxamide] and `Cc1noc(C)c1-c1ccc2[nH]c(=S)n3c2c1OCC3c1ccccn1` (centres unmarked) [Example 255, 7-(3,5-Dimethylisoxazol-4-yl)-4-pyridin-2-yl-4,5-dihydroimidazo[1,5,4-de][1,4]benzoxazine-2(1H)-thione] cannot be ordered by IC50: under 1000 nM for the first, under 1000 nM for the second.

Compared with `Cc1noc(C)c1-c1cc(CNC(C)C)c2[nH]c(=O)n3c2c1OCC3c1ccccn1` (centres unmarked) [Example 253, 7-(3,5-Dimethylisoxazol-4-yl)-9-[(isopropylamino)methyl]-4-pyridin-2-yl-4,5-dihydroimidazo[1,5,4-de][1,4]benzoxazin-2(1H)-one], `Cc1noc(C)c1-c1cc(CO)c2[nH]c(=O)n3c2c1OCC3c1ccccn1` (centres unmarked) [Example 254, 7-(3,5-Dimethylisoxazol-4-yl)-9-(hydroxymethyl)-4-pyridin-2-yl-4,5-dihydroimidazo[1,5,4-de][1,4]benzoxazin-2(1H)-one] is lower in IC50: 1000 to 10000 nM for the first, under 1000 nM for the second.

`Cc1noc(C)c1-c1cc(-c2cn[nH]c2)c2[nH]c(=O)n3c2c1OCC3c1ccccn1` (centres unmarked) [Example 256, 7-(3,5-dimethylisoxazol-4-yl)-9-(1H-pyrazol-4-yl)-4-pyridin-2-yl-4,5-dihydroimidazo[1,5,4-de][1,4]benzoxazin-2(1H)-one] and `Cc1noc(C)c1-c1cc(-c2cn[nH]c2C)c2[nH]c(=O)n3c2c1OCC3c1ccccn1` (centres unmarked) [Example 257, 7-(3,5-dimethylisoxazol-4-yl)-9-(3-methyl-1H-pyrazol-4-yl)-4-pyridin-2-yl-4,5-dihydroimidazo[1,5,4-de][1,4]benzoxazin-2(1H)-one] cannot be ordered by IC50: under 1000 nM for the first, under 1000 nM for the second.

First: Cc1noc(C)c1-c1cc(-c2ccnc(O)c2)c2[nH]c(=O)n3c2c1OC[C@@H]3c1ccccn1 [Example 260, (4S)-7-(3,5-dimethylisoxazol-4-yl)-9-(2-hydroxypyridin-4-yl)-4-pyridin-2-yl-4,5-dihydroimidazo[1,5,4-de][1,4]benzoxazin-2(1H)-one]
Second: Cc1noc(C)c1-c1cc(C(O)C(C)C)c2[nH]c(=O)n3c2c1OCC3c1ccccn1 (centres unmarked) [Example 264, 7-(3,5-dimethylisoxazol-4-yl)-9-(1-hydroxy-2-methylpropyl)-4-pyridin-2-yl-4,5-dihydroimidazo[1,5,4-de][1,4]benzoxazin-2(1H)-one]
The IC50 of the first is higher: 1000 to 10000 nM for the first, under 1000 nM for the second.

`Cc1noc(C)c1-c1cc(CNc2ccccc2)c2[nH]c(=O)n3c2c1OCC3c1ccccn1` (centres unmarked) [Example 262, 9-(anilinomethyl)-7-(3,5-dimethylisoxazol-4-yl)-4-pyridin-2-yl-4,5-dihydroimidazo[1,5,4-de][1,4]benzoxazin-2(1H)-one] and `COc1ccc(CNCc2cc(-c3c(C)noc3C)c3c4c2[nH]c(=O)n4C(c2ccccn2)CO3)cc1` (centres unmarked) [Example 263, 7-(3,5-dimethylisoxazol-4-yl)-9-{[(4-methoxybenzyl)amino]methyl}-4-pyridin-2-yl-4,5-dihydroimidazo[1,5,4-de][1,4]benzoxazin-2(1H)-one] cannot be ordered by IC50: under 1000 nM for the first, under 1000 nM for the second.

Same assay, conditions: Homo sapiens, KMS-12-BM, 72 h, 3 days, Cell Titer-GLO, read-out: KMS cellular IC50

First: Cc1noc(C)c1-c1cc(-c2ccc(O)nc2)c2[nH]c(=O)n3c2c1OC[C@@H]3c1ccccn1 [Example 259, (4S)-7-(3,5-dimethylisoxazol-4-yl)-9-(6-hydroxypyridin-3-yl)-4-pyridin-2-yl-4,5-dihydroimidazo[1,5,4-de][1,4]benzoxazin-2(1H)-one]
Second: Cc1noc(C)c1-c1cc(F)c2[nH]c(=O)n3c2c1OCC3c1ccccn1 (centres unmarked) [Example 265B, 7-(3,5-dimethylisoxazol-4-yl)-9-fluoro-4-pyridin-2-yl-4,5-dihydroimidazo[1,5,4-de][1,4]benzoxazin-2(1H)-one]
The IC50 of the first is higher: 1000 to 10000 nM for the first, under 1000 nM for the second.

Compound `Cc1noc(C)c1-c1cc(C#N)c2[nH]c(=O)n3c2c1OCC3c1ccccn1` (centres unmarked) [Example 269A, 7-(3,5-dimethylisoxazol-4-yl)-2-oxo-4-pyridin-2-yl-1,2,4,5-tetrahydroimidazo[1,5,4-de][1,4]benzoxazine-9-carbonitrile] has an IC50 of under 1000 nM.
